Like-named read-outs stand apart in the source and are kept apart here.
Experiments:
human TLR7 = human TLR7 (Homo sapiens (Human), UniProt Q9NYK1); assay: TLR7 inhibition reporter assay (HEK-Blue cells, SEAP reporter, gardiquimod stimulation); type: cell-based
human TLR8 = human TLR8 (Homo sapiens (Human), UniProt Q9NR97); assay: TLR8 inhibition reporter assay (HEK-Blue cells, SEAP reporter, R848 stimulation);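 note: compounds tested from 0.05 nM to 50 µM, 22 h at 37 °C, SEAP measured with HEK-Blue Detection, inhibition relative to agonist plus DMSO versus a known inhibitor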
human TLR9 = human TLR9 (Homo sapiens (Human), UniProt Q9NR96); assay: TLR9 inhibition reporter assay (HEK-Blue cells, SEAP reporter, ODN2006 stimulation);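 note: compounds tested over 0.05 nM to 50 µM, 22 h incubation, inhibition taken as SEAP signal drop from agonist plus DMSO wells toward a known inhibitor control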
[1] = HEK-Blue cells overexpressing human TLR7, gardiquimod 7.5 μM
[2] = read-out: TLR8 IC50, HEK-Blue cells overexpressing human TLR8, R848 15.9 μM
[3] = read-out: TLR9 IC50, HEK-Blue cells overexpressing human TLR9, ODN2006 5 nM
[4] = HEK-Blue cells, gardiquimod 7.5 μM
[5] = read-out: TLR8 IC50, HEK-Blue cells, R848 15.9 μM
[6] = read-out: TLR9 IC50, HEK-Blue cells, ODN2006 5 nM

Chain of human TLR8 (Q9NR97 27-1041): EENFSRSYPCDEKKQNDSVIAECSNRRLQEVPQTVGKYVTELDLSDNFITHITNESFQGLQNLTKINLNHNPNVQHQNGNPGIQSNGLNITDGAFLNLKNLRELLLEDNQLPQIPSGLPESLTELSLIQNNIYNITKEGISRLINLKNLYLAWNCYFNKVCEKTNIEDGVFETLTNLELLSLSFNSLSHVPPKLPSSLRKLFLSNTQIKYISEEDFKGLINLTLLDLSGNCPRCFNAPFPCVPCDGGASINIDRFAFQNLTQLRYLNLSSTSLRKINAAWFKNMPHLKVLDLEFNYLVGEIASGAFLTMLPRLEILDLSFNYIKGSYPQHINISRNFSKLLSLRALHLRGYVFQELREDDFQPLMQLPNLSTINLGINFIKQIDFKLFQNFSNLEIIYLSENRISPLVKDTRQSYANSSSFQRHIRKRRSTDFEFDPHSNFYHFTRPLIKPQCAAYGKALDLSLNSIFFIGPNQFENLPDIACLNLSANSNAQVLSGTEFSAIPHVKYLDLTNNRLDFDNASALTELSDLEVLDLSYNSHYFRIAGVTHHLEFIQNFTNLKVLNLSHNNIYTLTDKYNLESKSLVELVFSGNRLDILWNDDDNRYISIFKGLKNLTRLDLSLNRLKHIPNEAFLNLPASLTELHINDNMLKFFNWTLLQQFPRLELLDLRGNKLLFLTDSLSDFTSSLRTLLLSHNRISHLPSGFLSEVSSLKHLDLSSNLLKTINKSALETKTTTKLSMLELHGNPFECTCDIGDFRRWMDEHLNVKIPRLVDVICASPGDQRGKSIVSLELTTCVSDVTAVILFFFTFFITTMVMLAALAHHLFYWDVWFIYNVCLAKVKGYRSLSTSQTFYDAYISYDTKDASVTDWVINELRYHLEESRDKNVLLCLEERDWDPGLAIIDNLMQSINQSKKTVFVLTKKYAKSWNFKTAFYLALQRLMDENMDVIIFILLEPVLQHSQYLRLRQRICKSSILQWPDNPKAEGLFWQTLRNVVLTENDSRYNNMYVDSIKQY
Chain of human TLR7 (Q9NYK1 27-1049): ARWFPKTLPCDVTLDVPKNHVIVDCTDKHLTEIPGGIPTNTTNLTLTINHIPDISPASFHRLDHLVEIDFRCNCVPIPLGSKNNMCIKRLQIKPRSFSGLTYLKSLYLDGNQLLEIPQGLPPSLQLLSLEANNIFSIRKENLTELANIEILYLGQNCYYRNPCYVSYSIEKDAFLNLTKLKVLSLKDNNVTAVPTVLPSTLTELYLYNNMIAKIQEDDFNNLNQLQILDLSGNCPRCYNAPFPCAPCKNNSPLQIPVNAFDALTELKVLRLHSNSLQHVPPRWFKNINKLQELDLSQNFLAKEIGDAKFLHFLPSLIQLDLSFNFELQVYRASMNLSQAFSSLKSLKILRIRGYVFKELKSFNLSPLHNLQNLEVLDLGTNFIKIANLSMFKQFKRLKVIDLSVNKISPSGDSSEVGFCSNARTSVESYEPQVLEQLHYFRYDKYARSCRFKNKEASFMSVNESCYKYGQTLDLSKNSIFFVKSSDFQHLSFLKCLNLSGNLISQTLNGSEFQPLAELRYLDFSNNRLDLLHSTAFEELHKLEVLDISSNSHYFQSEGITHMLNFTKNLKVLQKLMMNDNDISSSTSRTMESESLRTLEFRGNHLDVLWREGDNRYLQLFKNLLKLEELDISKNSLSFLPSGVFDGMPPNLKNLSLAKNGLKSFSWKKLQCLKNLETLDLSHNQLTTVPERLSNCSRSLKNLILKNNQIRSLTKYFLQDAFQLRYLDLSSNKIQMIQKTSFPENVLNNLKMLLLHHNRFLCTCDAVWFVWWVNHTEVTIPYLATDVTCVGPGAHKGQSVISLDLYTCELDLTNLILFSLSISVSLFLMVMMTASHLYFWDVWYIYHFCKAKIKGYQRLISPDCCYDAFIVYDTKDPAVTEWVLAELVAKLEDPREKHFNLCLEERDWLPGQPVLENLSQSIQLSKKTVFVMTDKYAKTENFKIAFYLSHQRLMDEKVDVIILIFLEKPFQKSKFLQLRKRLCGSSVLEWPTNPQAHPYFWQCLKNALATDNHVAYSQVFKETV
Chain of human TLR9 (Q9NR96 26-1032): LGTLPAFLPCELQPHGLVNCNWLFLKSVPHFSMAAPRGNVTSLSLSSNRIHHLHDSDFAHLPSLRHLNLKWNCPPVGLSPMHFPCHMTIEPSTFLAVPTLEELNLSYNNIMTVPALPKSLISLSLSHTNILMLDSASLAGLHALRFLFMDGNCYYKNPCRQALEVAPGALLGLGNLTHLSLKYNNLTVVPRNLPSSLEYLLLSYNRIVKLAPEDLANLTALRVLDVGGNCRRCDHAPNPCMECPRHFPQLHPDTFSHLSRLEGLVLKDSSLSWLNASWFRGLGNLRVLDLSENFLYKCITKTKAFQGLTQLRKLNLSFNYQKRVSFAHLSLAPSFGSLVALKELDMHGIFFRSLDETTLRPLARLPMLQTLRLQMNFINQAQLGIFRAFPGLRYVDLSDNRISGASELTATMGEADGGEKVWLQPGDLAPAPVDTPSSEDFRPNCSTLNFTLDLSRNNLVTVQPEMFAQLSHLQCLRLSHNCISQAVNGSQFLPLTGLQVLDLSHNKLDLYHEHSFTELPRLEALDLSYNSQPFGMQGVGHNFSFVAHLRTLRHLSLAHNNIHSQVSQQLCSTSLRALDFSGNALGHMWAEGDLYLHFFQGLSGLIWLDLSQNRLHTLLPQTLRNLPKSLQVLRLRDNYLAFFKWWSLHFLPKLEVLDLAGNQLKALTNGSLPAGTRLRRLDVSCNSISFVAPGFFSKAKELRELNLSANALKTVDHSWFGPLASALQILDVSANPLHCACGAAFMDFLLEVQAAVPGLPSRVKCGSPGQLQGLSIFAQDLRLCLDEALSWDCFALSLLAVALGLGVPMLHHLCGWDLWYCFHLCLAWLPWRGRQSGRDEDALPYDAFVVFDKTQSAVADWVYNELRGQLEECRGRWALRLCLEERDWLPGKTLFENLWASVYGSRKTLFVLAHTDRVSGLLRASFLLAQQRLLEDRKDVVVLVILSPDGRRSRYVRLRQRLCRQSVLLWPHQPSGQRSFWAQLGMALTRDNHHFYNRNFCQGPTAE

| SMILES | IC50 (human TLR7; [1]) | IC50 (human TLR8; [2]) | IC50 (human TLR9; [3]) | IC50 (human TLR8; TLR8 IC50, HEK-Blue cells overexpressing human TLR8, R848 15.9 μM) | IC50 (human TLR9; TLR9 IC50, HEK-Blue cells overexpressing human TLR9, ODN2006 5 nM) | IC50 (human TLR7; [4]) | IC50 (human TLR8; [5]) | IC50 (human TLR9; [6]) |
| --- | --- | --- | --- | --- | --- | --- | --- | --- |
| Cc1cc(-c2[nH]c3ccc(C4CCN(CC(=O)N5CCCC5)CC4)cc3c2C(C)C)cc(C)n1 [Example 242, 2-(4-(2-(2,6-dimethylpyridin-4-yl)-3-isopropyl-1H-indol-5-yl)piperidin-1-yl)-1-(pyrrolidin-1-yl)ethan-1-one] | 5.2 nM | 24.7 nM | 1020 nM |  |  |  |  |  |
| CCN(CCO)CC(=O)N1CCC(c2ccc3[nH]c(-c4cc(C)nc(C)c4)c(C(C)C)c3c2)CC1 [Example 397, 1-(4-(2-(2,6-dimethylpyridin-4-yl)-3-isopropyl-1H-indol-5-yl)piperidin-1-yl)-2-(ethyl(2-hydroxyethyl)amino)ethan-1-one] | 2.2 nM | 18.6 nM | 705 nM |  |  |  |  |  |
| Cc1cc(-c2[nH]c3ccc(C4CCN(C5CCCNC5)CC4)cc3c2C(C)C)ccn1 (stereo not drawn) [Example 703, 5-([1,3′-bipiperidin]-4-yl)-3-isopropyl-2-(2-methylpyridin-4-yl)-1H-indole] | 8.8 nM | 1.8 nM | 526 nM |  |  |  |  |  |
| Cc1cc(-c2[nH]c3ccc(C4CCN(Cc5cnn(C)c5)CC4)cc3c2C(C)C)cc(C)n1 [Example 440, 2-(2,6-dimethylpyridin-4-yl)-3-isopropyl-5-(1-((1-methyl-1H-pyrazol-4-yl)methyl)piperidin-4-yl)-1H-indole] | 5.3 nM | 2.3 nM | 210 nM |  |  |  |  |  |
| Cc1cc(-c2[nH]c3ccc(C4CCN(C(=O)CCN5CCOCC5)CC4)cc3c2C(C)C)cc(C)n1 [Example 128, 1-(4-(2-(2,6-dimethylpyridin-4-yl)-3-isopropyl-1H-indol-5-yl)piperidin-1-yl)-3-morpholinopropan-1-one] | 3.9 nM | 15.5 nM | 730 nM |  |  |  |  |  |
| Cc1cc(-c2[nH]c3ccc(C4CCN(C(=O)CCN(C)C)CC4)cc3c2C(C)C)ccn1 [Example 578, 3-(dimethylamino)-1-(4-(3-isopropyl-2-(2-methylpyridin-4-yl)-1H-indol-5-yl)piperidin-1-yl)propan-1-one] | 7.1 nM | 5.7 nM | 722 nM |  |  |  |  |  |
| Cc1cc(-c2[nH]c3ccc(C4CCN(C(=O)CN(C)C)CC4)cc3c2C(C)C)c(F)cn1 [Example 586, 2-(dimethylamino)-1-(4-(2-(5-fluoro-2-methylpyridin-4-yl)-3-isopropyl-1H-indol-5-yl)piperidin-1-yl)ethan-1-one] | 2.6 nM | 6.2 nM | 3040 nM |  |  |  |  |  |
| CCc1c(-c2ccnc(OC)c2)[nH]c2ccc(C3CCN(C4CCCN(C5CCCC5)CC4)CC3)cc12 (stereo not drawn) [Example 793, 5-(1-(1-cyclopentylazepan-4-yl)piperidin-4-yl)-3-ethyl-2-(2-methoxypyridin-4-yl)-1H-indole] | 371 nM | 29.6 nM | 252 nM |  |  |  |  |  |
| Cc1cc(-c2[nH]c3ccc(C4CCN(CC5(C)COC5)CC4)cc3c2C(C)C)cc(C)n1 [Example 475, 2-(2,6-dimethylpyridin-4-yl)-3-isopropyl-5-(1-((3-methyloxetan-3-yl)methyl)piperidin-4-yl)-1H-indole] | 4.1 nM | 2.2 nM | 335 nM |  |  |  |  |  |
| Cc1cc(-c2[nH]c3ccc(C4CCN(C(=O)CNC5CCOC5)CC4)cc3c2C(C)C)cc(C)n1 (stereo not drawn) [Example 387, 1-(4-(2-(2,6-dimethylpyridin-4-yl)-3-isopropyl-1H-indol-5-yl)piperidin-1-yl)-2-((tetrahydrofuran-3-yl)amino)ethan-1-one] | 0.6 nM | 13.3 nM | 909 nM |  |  |  |  |  |
| Cc1cc(-c2[nH]c3ccc(C4CCN(Cc5nncn5C)CC4)cc3c2C(C)C)c(F)cn1 [Example 737, 2-(5-fluoro-2-methylpyridin-4-yl)-3-isopropyl-5-(1-((4-methyl-4H-1,2,4-triazol-3-yl)methyl)piperidin-4-yl)-1H-indole] | 14.5 nM | 5.1 nM | > 50000 nM |  |  |  |  |  |
| Cc1cc(-c2[nH]c3ccc(C4CCN(CC(=O)N(C)C)CC4)cc3c2C(C)C)ccn1 [Example 512, 2-(4-(3-isopropyl-2-(2-methylpyridin-4-yl)-1H-indol-5-yl)piperidin-1-yl)-N,N-dimethylacetamide] | 13 nM | 11.7 nM | 1060 nM |  |  |  |  |  |
| CCc1c(-c2ccnc(N)c2)[nH]c2ccc([C@@H]3CCNC[C@H]3F)cc12 [491-B] | 526 nM | 34.9 nM | 324 nM |  |  |  |  |  |
| Cc1cc(-c2[nH]c3ccc(C4CCN(C(=O)C5CC(=O)N(C)C5)CC4)cc3c2C(C)C)cc(C)n1 (stereo not drawn) [Example 102, 4-(4-(2-(2,6-dimethylpyridin-4-yl)-3-isopropyl-1H-indol-5-yl)piperidine-1-carbonyl)-1-methylpyrrolidin-2-one] | 7.5 nM |  |  | 72.6 nM | 36200 nM |  |  |  |
| Cc1cc(-c2[nH]c3ccc(C4CCN(C(=O)C5(C)CCN(C(C)C)CC5)CC4)cc3c2C(C)C)cc(C)n1 [Example 177, (4-(2-(2,6-dimethylpyridin-4-yl)-3-isopropyl-1H-indol-5-yl)piperidin-1-yl)(1-isopropyl-4-methylpiperidin-4-yl)methanone] | 13.1 nM | 67.2 nM | 937 nM |  |  |  |  |  |
| Cc1cc(-c2[nH]c3ccc(C4CCN(C(=O)CN5CC(=O)NC5=O)CC4)cc3c2C(C)C)cc(C)n1 [Example 151, 1-(2-(4-(2-(2,6-dimethylpyridin-4-yl)-3-isopropyl-1H-indol-5-yl)piperidin-1-yl)-2-oxoethyl)imidazolidine-2,4-dione] | 15 nM | 83.8 nM | 46700 nM |  |  |  |  |  |
| Cc1cc(-c2[nH]c3ccc(C4CCN(Cc5c[nH]nn5)CC4)cc3c2C(C)C)cc(C)n1 [Example 446, 5-(1-((1H-1,2,3-triazol-4-yl)methyl)piperidin-4-yl)-2-(2,6-dimethylpyridin-4-yl)-3-isopropyl-1H-indole] | 1.3 nM | 2.6 nM | 292 nM |  |  |  |  |  |
| CCc1c(-c2ccnc(C)c2)[nH]c2ccc(C3CCN(CCC(F)(F)F)CC3)cc12 [Example 863, 3-ethyl-2-(2-methylpyridin-4-yl)-5-(1-(3,3,3-trifluoropropyl)piperidin-4-yl)-1H-indole] |  |  |  |  |  | 469 nM | 53 nM | 2450 nM |
| Cc1ccc(CN2CCC(c3ccc4[nH]c(-c5cc(C)nc(C)c5)c(C(C)C)c4c3)CC2)cn1 [Example 437, 2-(2,6-dimethylpyridin-4-yl)-3-isopropyl-5-(1-((6-methylpyridin-3-yl)methyl)piperidin-4-yl)-1H-indole] | 8.6 nM | 6.7 nM | 267 nM |  |  |  |  |  |
| Cc1cc(-c2[nH]c3ccc(C4CCN(C5CCN(CC(C)C)CC5)CC4)cc3c2C)ccn1 [Example 810, 5-(1′-isobutyl-[1,4′-bipiperidin]-4-yl)-3-methyl-2-(2-methylpyridin-4-yl)-1H-indole] |  |  |  |  |  | 145 nM | 16.2 nM | 19 nM |
| Cc1cc(-c2[nH]c3ccc(C4CCN(Cc5cn[nH]c5)CC4)cc3c2C(C)C)cc(C)n1 [Example 438, 5-(1-((1H-pyrazol-4-yl)methyl)piperidin-4-yl)-2-(2,6-dimethylpyridin-4-yl)-3-isopropyl-1H-indole] | 1.2 nM | 3.1 nM | 69 nM |  |  |  |  |  |
| Cc1cc(-c2[nH]c3ccc(C4CCN(CC(C)C)CC4)cc3c2C(C)C)cc(C)n1 [Example 471, 2-(2,6-dimethylpyridin-4-yl)-5-(1-isobutylpiperidin-4-yl)-3-isopropyl-1H-indole] | 2.4 nM | 8 nM | 610 nM |  |  |  |  |  |
| Cc1cc(-c2[nH]c3ccc(C4CCN(C(=O)[C@@H](N)CCCCN)CC4)cc3c2C(C)C)ccn1 [Example 579, (S)-2,6-diamino-1-(4-(3-isopropyl-2-(2-methylpyridin-4-yl)-1H-indol-5-yl)piperidin-1-yl)hexan-1-one] | 201 nM | 98 nM | 4360 nM |  |  |  |  |  |
| CCc1c(-c2ccnc(C)c2)[nH]c2ccc(C3CCN(C(=O)C4(C)CCNCC4)CC3)cc12 [Example 626, (4-(3-ethyl-2-(2-methylpyridin-4-yl)-1H-indol-5-yl)piperidin-1-yl)(4-methylpiperidin-4-yl)methanone] | 62.6 nM | 53.5 nM | 169 nM |  |  |  |  |  |
| Cc1cc(-c2[nH]c3ccc(C4CCN(CC(=O)NC5CCOCC5)CC4)cc3c2C(C)C)cc(C)n1 [Example 280, 2-(4-(2-(2,6-dimethylpyridin-4-yl)-3-isopropyl-1H-indol-5-yl)piperidin-1-yl)-N-(tetrahydro-2H-pyran-4-yl)acetamide] | 3 nM | 6.1 nM | 350 nM |  |  |  |  |  |
| Cc1nccc(-c2[nH]c3ccc(C4CCN(C(=O)CN(C)C)CC4)cc3c2C(C)C)c1F [Example 587, 2-(dimethylamino)-1-(4-(2-(3-fluoro-2-methylpyridin-4-yl)-3-isopropyl-1H-indol-5-yl)piperidin-1-yl)ethan-1-one] | 2.7 nM | 5.2 nM | 2910 nM |  |  |  |  |  |
| Cc1cc(-c2[nH]c3cc(F)c(C4CCN(Cc5ncn(C)n5)CC4)cc3c2C(C)C)cc(C)n1 [Example 832, 2-(2,6-dimethylpyridin-4-yl)-6-fluoro-3-isopropyl-5-(1-((1-methyl-1H-1,2,4-triazol-3-yl)methyl)piperidin-4-yl)-1H-indole] |  |  |  |  |  | 6.2 nM | 25.4 nM | 3080 nM |
| Cc1cc(-c2[nH]c3ccc(C4CCN(C(C)C(=O)N(C)C)CC4)cc3c2CC(F)F)cc(C)n1 (stereo not drawn) [Example 493, 2-(4-(3-(2,2-difluoroethyl)-2-(2,6-dimethylpyridin-4-yl)-1H-indol-5-yl)piperidin-1-yl)-N,N-dimethylpropanamide] | 84.5 nM | 498 nM | 1640 nM |  |  |  |  |  |

Source: US10660877B2 (BRISTOL-MYERS SQUIBB COMPANY, priority 2016, dated 2020)
